In ChEMBL document CHEMBL2331144, “Synthesis and anticancer activity of analogues of phenstatin, with a phenothiazine A-ring, as a new class of microtubule-targeting agents” (Bioorg Med Chem Lett, 2013):

Legend:
[1] = tested on: HOP-92; assay: Growth inhibition of human HOP92 cells after 48 hrs by sulforhodamine B assay; format: functional; details: HOP-92, 48 h
[2] = tested on: UO-31; assay: Growth inhibition of human UO31 cells after 48 hrs by sulforhodamine B assay; format: functional; details: UO-31, 48 h
[3] = tested on: OVCAR-3; assay: Growth inhibition of human OVCAR3 cells after 48 hrs by sulforhodamine B assay; format: functional; details: OVCAR-3, 48 h
[4] = tested on: MDA-MB-468; assay: Growth inhibition of human MDA-MB-468 cells after 48 hrs by sulforhodamine B assay; format: functional; details: MDA-MB-468, 48 h
[5] = tested on: MOLT-4; assay: Growth inhibition of human MOLT4 cells after 48 hrs by sulforhodamine B assay; format: functional; details: MOLT-4, 48 h
[6] = tested on: SK-OV-3; assay: Growth inhibition of human SKOV3 cells after 48 hrs by sulforhodamine B assay; format: functional; details: SK-OV-3, 48 h
[7] = tested on: PC-3; assay: Growth inhibition of human PC3 cells after 48 hrs by sulforhodamine B assay; format: functional; details: PC-3, 48 h
[8] = tested on: SF-539; assay: Growth inhibition of human SF539 cells after 48 hrs by sulforhodamine B assay; format: functional; details: SF-539, 48 h
[9] = Growth inhibition of human NCI-ADR-RES cells after 48 hrs by sulforhodamine B assay; format: functional
[10] = tested on: CCRF-CEM; assay: Growth inhibition of human CCRF-CEM cells after 48 hrs by sulforhodamine B assay; format: functional
[11] = tested on: 786-0; assay: Growth inhibition of human 786-0 cells after 48 hrs by sulforhodamine B assay; format: functional; details: 786-0, 48 h
[12] = tested on: TK-10; assay: Growth inhibition of human TK10 cells after 48 hrs by sulforhodamine B assay; format: functional; details: TK-10, 48 h
[13] = tested on: NCI-H23; assay: Growth inhibition of human NCI-H23 cells after 48 hrs by sulforhodamine B assay; format: functional; details: NCI-H23, 48 h
[14] = tested on: SNB-75; assay: Growth inhibition of human SNB75 cells after 48 hrs by sulforhodamine B assay; format: functional; details: SNB-75, 48 h
[15] = tested on: ACHN; assay: Growth inhibition of human ACHN cells after 48 hrs by sulforhodamine B assay; format: functional
[16] = tested on: HL-60(TB); assay: Growth inhibition of human HL-60(TB) cells after 48 hrs by sulforhodamine B assay; format: functional; details: HL-60, 48 h
[17] = tested on: NCI-H460; assay: Growth inhibition of human NCI-H460 cells after 48 hrs by sulforhodamine B assay; format: functional; details: NCI-H460, 48 h
[18] = tested on: SW-620; assay: Growth inhibition of human SW620 cells after 48 hrs by sulforhodamine B assay; format: functional; details: SW-620, 48 h
[19] = tested on: HT-29; assay: Growth inhibition of human HT-29 cells after 48 hrs by sulforhodamine B assay; format: functional; details: HT-29, 48 h
[20] = tested on: LOX IMVI; assay: Growth inhibition of human LOXIMVI cells after 48 hrs by sulforhodamine B assay; format: functional
[21] = tested on: KM12; assay: Growth inhibition of human KM12 cells after 48 hrs by sulforhodamine B assay; format: functional; details: KM12, 48 h
[22] = tested on: OVCAR-4; assay: Growth inhibition of human OVCAR4 cells after 48 hrs by sulforhodamine B assay; format: functional; details: OVCAR-4, 48 h
[23] = tested on: MCF7; assay: Growth inhibition of human MCF7 cells after 48 hrs by sulforhodamine B assay; format: functional; details: MCF7, 48 h
[24] = tested on: HCT-116; assay: Growth inhibition of human HCT116 cells after 48 hrs by sulforhodamine B assay; format: functional; details: HCT-116, 48 h
[25] = tested on: UACC-62; assay: Growth inhibition of human UACC62 cells after 48 hrs by sulforhodamine B assay; format: functional; details: UACC-62, 48 h
[26] = tested on: SN12C; assay: Growth inhibition of human SN12C cells after 48 hrs by sulforhodamine B assay; format: functional
[27] = tested on: HCT-15; assay: Growth inhibition of human HCT15 cells after 48 hrs by sulforhodamine B assay; format: functional; details: HCT-15, 48 h
[28] = Growth inhibition of human Hs 578T cells after 48 hrs by sulforhodamine B assay; format: functional
[29] = tested on: K562; assay: Growth inhibition of human K562 cells after 48 hrs by sulforhodamine B assay; format: functional; details: K562, 48 h
[30] = tested on: MDA-MB-231; assay: Growth inhibition of human MDA-MB-231 cells after 48 hrs by sulforhodamine B assay; format: functional; details: MDA-MB-231, 48 h
[31] = tested on: UACC-257; assay: Growth inhibition of human UACC257 cells after 48 hrs by sulforhodamine B assay; format: functional; details: UACC-257, 48 h
[32] = tested on: RPMI-8226; assay: Growth inhibition of human RPMI8226 cells after 48 hrs by sulforhodamine B assay; format: functional; details: RPMI-8226, 48 h
[33] = tested on: OVCAR-8; assay: Growth inhibition of human OVCAR8 cells after 48 hrs by sulforhodamine B assay; format: functional; details: OVCAR-8, 48 h
[34] = tested on: MDA-MB-435; assay: Growth inhibition of human MDA-MB-435 cells after 48 hrs by sulforhodamine B assay; format: functional; details: MDA-MB-435, 48 h
[35] = tested on: BT-549; assay: Growth inhibition of human BT549 cells after 48 hrs by sulforhodamine B assay; format: functional; details: BT-549, 48 h
[36] = tested on: M14; assay: Growth inhibition of human M14 cells after 48 hrs by sulforhodamine B assay; format: functional; details: M14, 48 h
[37] = tested on: SK-MEL-2; assay: Growth inhibition of human SK-MEL-2 cells after 48 hrs by sulforhodamine B assay; format: functional; details: SK-MEL-2, 48 h
[38] = Growth inhibition of human HCC2998 cells after 48 hrs by sulforhodamine B assay; format: functional; details: HCC 2998, 48 h
[39] = tested on: HOP-62; assay: Growth inhibition of human HOP62 cells after 48 hrs by sulforhodamine B assay; format: functional; details: HOP-62, 48 h
[40] = tested on: SR; assay: Growth inhibition of human SR cells after 48 hrs by sulforhodamine B assay; format: functional
[41] = tested on: IGROV-1; assay: Growth inhibition of human IGROV1 cells after 48 hrs by sulforhodamine B assay; format: functional; details: IGROV-1, 48 h
[42] = tested on: SF-295; assay: Growth inhibition of human SF295 cells after 48 hrs by sulforhodamine B assay; format: functional; details: SF-295, 48 h
[43] = tested on: NCI-H522; assay: Growth inhibition of human NCI-H522 cells after 48 hrs by sulforhodamine B assay; format: functional; details: NCI-H522, 48 h
[44] = tested on: SF-268; assay: Growth inhibition of human SF268 cells after 48 hrs by sulforhodamine B assay; format: functional; details: SF-268, 48 h
[45] = tested on: SK-MEL-5; assay: Growth inhibition of human SK-MEL-5 cells after 48 hrs by sulforhodamine B assay; format: functional; details: SK-MEL-5, 48 h
[46] = tested on: A498; assay: Growth inhibition of human A498 cells after 48 hrs by sulforhodamine B assay; format: functional; details: A498, 48 h
[47] = species on record: Ovis aries; assay: Inhibition of sheep brain tubulin polymerization at 100 uM using DAPI by fluorimetry
[48] = tested on: A549; assay: Growth inhibition of human A549/ATCC cells after 48 hrs by sulforhodamine B assay; format: functional; details: A549, 48 h
[49] = Inhibition of sheep brain tubulin polymerization using DAPI by fluorimetry; parameters: species or system Ovis aries
[50] = tested on: SK-MEL-28; assay: Growth inhibition of human SK-MEL-28 cells after 48 hrs by sulforhodamine B assay; format: functional; details: SK-MEL-28, 48 h
[51] = tested on: CAKI-1; assay: Growth inhibition of human CAKI-1 cells after 48 hrs by sulforhodamine B assay; format: functional; details: CAKI-1, 48 h
[52] = tested on: DU-145; assay: Growth inhibition of human DU145 cells after 48 hrs by sulforhodamine B assay; format: functional; details: DU-145, 48 h
[53] = tested on: COLO 205; assay: Growth inhibition of human COLO205 cells after 48 hrs by sulforhodamine B assay; format: functional; details: COLO 205, 48 h
[54] = tested on: RXF 393; assay: Growth inhibition of human RXF393 cells after 48 hrs by sulforhodamine B assay; format: functional; details: RXF 393, 48 h

## COc1ccc(C(=O)N2c3ccccc3Sc3ccccc32)cc1N
[1]
  GI50: 277 nM
[2]
  GI50: 650 nM
[3]
  GI50: 101 nM
[4]
  GI50: 50 nM
[5]
  GI50: 380 nM
[6]
  GI50: 244 nM
[7]
  GI50: 310 nM
[8]
  GI50: 164 nM
[9]
  GI50: 80 nM
[10]
  GI50: 268 nM
[11]
  GI50: 524 nM
[12]
  GI50: 575 nM
[13]
  GI50: 437 nM
[14]
  GI50: 257 nM
[15]
  GI50: 472 nM
[16]
  GI50: 245 nM
[17]
  GI50: 289 nM
[18]
  GI50: 90 nM
[19]
  GI50: 151 nM
[20]
  GI50: 881 nM
[21]
  GI50: 97 nM
[22]
  GI50: 1210 nM
[23]
  GI50: 93 nM
[24]
  GI50: 166 nM
[25]
  GI50: 127 nM
[26]
  GI50: 798 nM
[27]
  GI50: 73 nM
[28]
  GI50: 424 nM
[29]
  GI50: 40 nM
[30]
  GI50: 310 nM
[31]
  GI50: 1940 nM
[32]
  GI50: 328 nM
[33]
  GI50: 366 nM
[34]
  GI50: 29 nM
[35]
  GI50: 877 nM
[36]
  GI50: 90 nM
[37]
  GI50: 134 nM
[38]
  GI50: 683 nM
[39]
  GI50: 226 nM
[40]
  GI50: 30 nM
[41]
  GI50: 721 nM
[42]
  GI50: 71 nM
[43]
  GI50: 35 nM
[44]
  GI50: 958 nM
[45]
  GI50: 53 nM
[46]
  GI50: 129 nM
[47]
  inhibition: 99%
[48]
  GI50: 187 nM
[49]
  IC50: 11.8 µM
[50]
  GI50: 407 nM
[51]
  GI50: 290 nM
[52]
  GI50: 291 nM
[53]
  GI50: 193 nM
[54]
  GI50: 130 nM
